Experiment [1] in a line: Vasorelaxant activity against depolarization-induced carotid artery constriction in white rabbit. Format: functional, tissue-based, Oryctolagus cuniculus.
Experiment [2] is described as follows: Vasorelaxant activity against depolarization-induced basilar artery constriction in white rabbit. In kind it is functional, tissue-based, Oryctolagus cuniculus.

As to `CC(=O)CC/C=C(\C)CCC/C(C)=C\C(=O)CC(C)C`, the results for the EC50 in experiment [1] and in experiment [2] were 14.5 µM and 3.72 µM, respectively.
As for `CC(=O)CC/C=C(\C)CCC/C(C)=C/C(=O)CC(C)C`, the values for the EC50 in experiment [1] and in experiment [2] were 13.7 µM and 1.22 µM, respectively.
